In US5110798A, “Purine derivatives having pharmacological action” (Co Pharma Corporation S.r.l., priority 1987, dated 1992):

System: neurokinin receptors such as NK-P, NK-A and NK-B
Conditions: several in vitro models

CSCC[C@H](NC(=O)[C@H](CC(C)C)NC(=O)CNC(=O)OCCCCCn1cnc2c(=O)[nH]cnc21)C(=O)O [Example 3]
neurokinin-like activity: showed neurokinin-like activity
